Laboratory results from patent US20040229246A1, “Diagnostic markers for therapeutic treatment” (Can-Fite Biopharam Ltd., priority 2002, published 2004).

Tests used:
[1] = system: A3AR, A2AR, PI3K, PKB/Akt, IKKα/β, NF-κB, TNF-α, GSK-3β, caspase-3; assay: Western blot of A3AR and downstream signaling proteins in DLN and synovial tissue of AIA rats; format: in vivo
Description: AIA in Rats: Female Lewis rats, aged 8-12 weeks, obtained from Harlan Laboratories (Jerusalem, Israel), were injected subcutaneously (s.c.) at the tail base with 100 μl of suspension composed of incomplete Freund's adjuvant (IFA) with 10 mg/ml heat killed Mycobacterium tuberculosis, (Mt) H37Ra, (Difco, Detroit, USA). To assess the clinical disease activity score, the animals were inspected every second day for clinical arthritis. The scoring system ranged from 0-4 of each limb: 0-no arthritis; 1-redness or swelling of one toe/finger joint; 2-redness and swelling of more than one toe/finger joints; 3-the ankle and tarsal-metatarsal joints involvement; 4-entire paw redness or swelling. The arthritic score was calculated by adding the four individual legs' score to a maximum of 16. For histological scoring, Animals were sacrificed, the legs were removed up to the knee level, fixed in 10% formaldehyde, decalcified, dehydrated, paraffin-embedded, cut into 4 μm sections and stained by Hematoxylin-Eosin. The assessment of all pathologic findings were performed blind using semi-quantitative grading scales of 0 to 4 for the following parameters: a) extent of inflammatory cells' infiltration to the joint tissues; b) synovial lining cell hyperplasia; c) pannus formation; and d) joint cartilage layers destruction. A fifth parameter, bone damage and erosion, was graded 0-5: 0-normal; 1-minimal loss of cortical bone at a few sites; 2-mild loss of cortical trabecular bone; 3-moderate loss of bone at many sites; 4-marked loss of bone at many sites; 5-marked loss of bone at many sites with fragmenting and full thickness penetration of inflammatory process or pannus into the cortical bone The mean of all the histological parameters scores were designated “Histology Score”. TNF-α was measured in synovia, DLN and spleen tissues derived from control and CF101 treated rats. To detect the level of expression of TNF-α, WB analysis was performed. Spleen and DLN mononuclear cells and synovial tissue were rinsed with ice-cold PBS and transferred to ice-cold lysis buffer (TNN buffer, 50 mM Tris buffer pH=7.5, 150 mM NaCl, NP 40 0.5% for 20 minutes). Cell debris was removed by centrifugation for 10 minutes, at 7500 g. The supernatant was utilized for WB analysis. Protein concentrations were determined using the Bio-Rad protein assay dye reagent. Equal amounts of the sample (50 μg) were separated by SDS-PAGE, using 12% polyacrylamide gels. The resolved proteins were then electro-blotted onto nitrocellulose membranes (Schleicher & Schuell, Keene, NH, USA). Membranes were blocked with 1% bovine serum albumin and incubated with polyclonal goat anti-rat TNF-α antibodies (dilution 1:1000) (Santa Cruz Biotechnology Inc., CA, USA) for 24 hours at 4° C. Blots were then washed and incubated with rabbit anti-goat polyclonal antibodies for 1 hour at room temperature. Bands were recorded using BCIP/NBT color development kit (Promega, Madison, Wis., USA). Densitometry of protein expression was normalized against β-actin and expressed as % of control.
Adjuvant induced arthritis (AIA) was induced in rats as described above. Rats were treated orally twice daily with either (i) vehicle (these rats serving as control), (ii) 10 μg/kg IB-MECA or with (ii) the specific A3AR […] MRS 1220 followed 30 minutes later by IB-MECA. The […] were sacrificed on day 28 for histological scoring and measurement of signaling proteins and TNF-α.

[2] = system: HCT-116 human colon carcinoma; assay: HCT-116 human colon carcinoma development in mice; format: in vivo; conditions: mice inoculated with HCT-116, 10 μg/kg orally daily
Description: Colon Carcinoma: Nude/BalbC male, 10-week-old mice were used. HCT-116 Human colon carcinoma cells (1.2×10^6 cells in 100 μL PBS) were inoculated subcutaneously to the flank of the mice. Treatment was initiated when tumors reached a size of ˜150 mm^3. Each group contained 10 mice, the control group treated with vehicle only, while the test group was administered daily orally with IB-MECA (10 μg/kg).
After 32 days the mice were sacrificed, tumor lesions were excise and protein was extracted for measurements as described above. Tumor size was evaluated by measuring with a caliber width (W) and length (L) and calculated according to the above formula.

A3AR = assay: RT-PCR detection of A3AR on human neutrophils; format: cell-based; conditions: incubated for 15 minutes at 37° C.
Description: Tissue sections (5 μm thick) on slides that, stained by H&E were observed by a pathologist. The neoplastic area and the normal area were detected and each one marked separately. The neoplastic tissue and the normal tissue were collected to different microcentrifuge tubes. The samples were treated with proteinase K at a final concentration of 0.1 mg/ml and incubated at 37° C. for 1 hour to allow for […]. Cells lysate were heated to 95° C. for 15 minutes in order to inactivate DNase and proteinase K. Following centrifugation at 14,000 RPM for 5 minutes, 17 μl of the supernatant was transferred to separate tube and 4 μl of RT mixture. 5 mM dNTPs, 2.5 μM random hexamer, 5 U RNasin, 100 U SuperScript One Step RT-PCR with Platinum Taq (Invitrogene) were added.
The RT reaction was performed at 45° C. for 45 minutes. […]
10×10^6 neutrophil cells isolated from 20 ml of human blood were incubated for 15 minutes with […] of CF101 at 37° C. […] RNA level was quantified using spectrophotometer and […] from each sample were subjected to RT-PCR using SuperScript One Step RT-PCR with Platinum Taq (Invitrogene), as described above in section E., by using the set No II as primers for amplification of 361 bp fragment. RT-PCR products were detected by electrophoresis and the size was verified by comparing with known RNA. […]

[3] = system: adjuvant induced arthritis; assay: Adjuvant induced arthritis (AIA) in rats, clinical and histological score; format: in vivo
Description: AIA in Rats: Female Lewis rats, aged 8-12 weeks, obtained from Harlan Laboratories (Jerusalem, Israel), were injected subcutaneously (s.c.) at the tail base with 100 μl of suspension composed of incomplete Freund's adjuvant (IFA) with 10 mg/ml heat killed Mycobacterium tuberculosis, (Mt) H37Ra, (Difco, Detroit, USA). To assess the clinical disease activity score, the animals were inspected every second day for clinical arthritis. The scoring system ranged from 0-4 of each limb: 0-no arthritis; 1-redness or swelling of one toe/finger joint; 2-redness and swelling of more than one toe/finger joints; 3-the ankle and tarsal-metatarsal joints involvement; 4-entire paw redness or swelling. The arthritic score was calculated by adding the four individual legs' score to a maximum of 16. For histological scoring, Animals were sacrificed, the legs were removed up to the knee level, fixed in 10% formaldehyde, decalcified, dehydrated, paraffin-embedded, cut into 4 μm sections and stained by Hematoxylin-Eosin. The assessment of all pathologic findings were performed blind using semi-quantitative grading scales of 0 to 4 for the following parameters: a) extent of inflammatory cells' infiltration to the joint tissues; b) synovial lining cell hyperplasia; c) pannus formation; and d) joint cartilage layers destruction. […] TNF-α was measured in synovia, DLN and spleen tissues derived from control and CF101 treated rats. […] Protein concentrations were determined using the Bio-Rad protein assay dye reagent. […] Bands were recorded using BCIP/NBT color development kit (Promega, Madison, Wis., USA). Densitometry of protein expression was normalized against β-actin and expressed as % of control. […]

CNC(=O)[C@H]1O[C@@H](n2cnc3c(NCc4cccc(I)c4)ncnc32)[C@H](O)[C@@H]1O [IB-MECA, 1-deoxy-1-[6[[(3-iodophenyl)methyl]amino]-9H-purine-9-yl]-N-methyl-β-D-ribofura-nuronaminde]
GSK-3β level ([1]; DLN): up-regulation
PI3K level ([1]; DLN): down-regulation
caspase-3 level ([1]; DLN): up-regulation
IKKα/β level ([1]; DLN and synovial tissue): down-regulation
NF-κB level ([1]; DLN and synovial tissue): down-regulation
TNF-α level ([1]; DLN and synovial tissue): down-regulation
level of the A2 adenosine receptor (A2AR) ([1]; DLN, Western blot): no effect
level of the A3AR ([1]; DLN, Western blot): down-regulation
PKB/Akt level ([1]; DLN, protein expression and activity): down-regulation
development of colon carcinoma (tumor size) [2]: markedly suppressed
expression of A3AR (RT-PCR) (A3AR): increase
clinical score (inflammatory response) ([3]; 10 μg/kg orally twice daily, versus vehicle): anti-inflammatory response
histological score ([3]; day 28, versus control): anti-inflammatory activity
